Laboratory results published in paper PMC3500847 (ChemMedChem, 2012).
Bridge positions count the residues as written; N and C are the ends. Square brackets hold non-standard residues; d marks the D form. Peptide text beside a SMILES is read from it. d(aThr) = C[C@@H](O)[C@@H](N)C(=O)O; 12Ado = NCCCCCCCCCCCC(=O)O

Legend:
[1] = tested on: human liver embryonic cell line WRL 68; assay type: cell-based
[2] = tested on: S. aureus ATCC 700699 (Mu50, VRSA); assay type: cell-based, Staphylococcus aureus
[3] = tested on: S. aureus ATCC 33591 (MRSA); assay type: cell-based, Staphylococcus aureus
[4] = tested on: HepG2 cancer cell line; assay type: cell-based, human
[5] = tested on: variety of fungi, including Candida albicans and Cryptococcus neoformans, and Gram-positive bacteria such as S. aureus; details: range over fungi and Gram-positive bacteria; cited from earlier work

CC(=O)N[C@@H]1C(=O)N[C@H](C(C)C)C(=O)N[C@@H](C(C)C)C(=O)N[C@H]([C@H](C)O)C(=O)N[C@H](CC(N)=O)C(=O)N[C@H](C)C(=O)O[C@@H]1C [compound 1] (Ac-T[dV]V[dT][dN][dA]; ester 1-C)
cytotoxicity [1]: did not show appreciable cytotoxicity | MIC [2]: >128 µg/mL | MIC [3]: >128 µg/mL | cytotoxicity [4]: did not show appreciable cytotoxicity

CC(C)[C@@H]1NC(=O)[C@@H](C(C)C)NC(=O)[C@@H](NC(=O)CCCCCCCCCCCN)[C@@H](C)OC(=O)[C@@H](C)NC(=O)[C@@H](CC(N)=O)NC(=O)[C@@H]([C@H](C)O)NC1=O [compound 3] (H-[12Ado]T[dV]V[dT][dN][dA]; ester 2-C)
MIC [2]: >128 µg/mL | MIC [3]: >128 µg/mL

CC(C)[C@@H]1NC(=O)[C@@H](C(C)C)NC(=O)[C@@H](NC(=O)CCCCCCCCCCCN)[C@@H](C)OC(=O)[C@@H](C)NC(=O)[C@@H](CC(N)=O)NC(=O)[C@@H]([C@@H](C)O)NC1=O [compound 4] (H-[12Ado]T[dV]V[d(aThr)][dN][dA]; ester 2-C)
MIC [2]: >128 µg/mL | MIC [3]: >128 µg/mL

fusaricidin A
MICs [5]: 0.78 to 3.12 µg/mL

CC(=O)N[C@@H]1C(=O)N[C@H](C(C)C)C(=O)N[C@@H](C(C)C)C(=O)N[C@H]([C@@H](C)O)C(=O)N[C@H](CC(N)=O)C(=O)N[C@H](C)C(=O)O[C@@H]1C [compound 2] (Ac-T[dV]V[d(aThr)][dN][dA]; ester 1-C)
MIC [2]: >128 µg/mL | MIC [3]: >128 µg/mL
